Patent publication US9247759B2, “Identification of human T2R receptors that respond to bitter compounds that elicit the bitter taste in compositions, and the use thereof in assays to identify compounds that inhibit (block) bitter taste in compositions and use thereof” (SENOMYX, INC., priority 2007, dated 2016)

Key:
[1] = system: hT2R55; assay: hT2R panel inhibition, transient HEK293 G16g44, agonist Cinchonine 150 μM; assay type: cell-based, human; conditions: compound at 25 μM; receptor activated to EC80 with the corresponding agonist
Outline: (§1)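 The test compound's selectivity was profiled by challenging each transiently expressed human T2R with its activating bitter ligand at an EC80 concentration, inhibition being the reduction of receptor signalling it produced.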

[2] = molecular target: hT2R10 (Homo sapiens (Human), UniProt Q9NYW0); assay: hT2R panel inhibition, transient HEK293 G16g44, agonist Strychnine 50 μM; assay type: cell-based; conditions: HEK293, read-out: screening result against bitter receptor 10, compound at 25 μM; receptor activated to EC80 with the corresponding agonist
[3] = system: hT2R44; assay: hT2R panel inhibition, transient HEK293 G16g44, agonist Denatonium 0.5 μM; assay type: cell-based, human; conditions: compound at 25 μM; receptor activated to EC80 with the corresponding agonist
Outline: as §1

[4] = system: hT2R67; assay: hT2R panel inhibition, transient HEK293 G16g44, agonist Andrographolide 5 μM; assay type: cell-based, human; conditions: compound at 25 μM; receptor activated to EC80 with the corresponding agonist
Outline: as §1

[5] = molecular target: hT2R9 (Homo sapiens (Human), UniProt Q9NYW1); assay: hT2R panel inhibition, transient HEK293 G16g44, agonist Ofloxacin 1 mM; assay type: cell-based; conditions: HEK293, compound at 25 μM; receptor activated to EC80 with the corresponding agonist; read-out: screening result against bitter receptor 9
Protocol: Specifically, in order to evaluate the inhibitory selectivity of the Compound C compound, this compound was tested against 22 human T2Rs which were deorphaned by Senomyx. These receptors and the bitter ligands that activate these human T2Rs are reported in earlier patent applications which are incorporated by reference herein. These 22 human T2Rs are hT2R1, 3, 4, 5, 7, 8, 9, 10, 13, 14, 16, 44, 51, 54, 55, 61, 63, 64, 65, 67, 71 and 75. The amino acid and nucleic acid sequences of all of these T2Rs may be found in these earlier patent applications. These human T2Rs were each individually transiently transfected into HEK293 cells that stably express the promiscuous G protein G16g44 and functional assays were effected using these receptors as disclosed in these same patent applications. […] The ligands were used at EC80 concentration levels. The list of bitter ligands utilized and the tested ligand concentrations are contained in Table 5 of this example.
Relating to the foregoing, FIG. 5 contains experimental results wherein Compound C was tested with different agonist compounds. The inhibition activity is represented by the reduction of receptor activity in the presence of Compound C. […] These 13 hT2Rs are hT2R3, 7, 10, 14, 16, 44, 51, 55, 61, 63, 64, 65, and 71.

[6] = molecular target: hT2R5 (Homo sapiens (Human), UniProt Q9NYW4); assay: hT2R panel inhibition, transient HEK293 G16g44, agonist Picoline 10 mM; assay type: cell-based; conditions: HEK293, compound at 25 μM; receptor activated to EC80 with the corresponding agonist; read-out: screening result against bitter receptor 5
Outline: as §1

[7] = molecular target: hT2R3 (Homo sapiens (Human), UniProt Q9NYW6); assay: hT2R panel inhibition, transient HEK293 G16g44, agonist Chloroquine pH6.5 50 μM; assay type: cell-based; conditions: HEK293, compound at 25 μM; receptor activated to EC80 with the corresponding agonist; read-out: screening result against bitter receptor 3
Outline: as §1

[8] = system: hT2R65; assay: hT2R panel inhibition, transient HEK293 G16g44, agonist Oleuropein 1 mM; assay type: cell-based, human; conditions: compound at 25 μM; receptor activated to EC80 with the corresponding agonist
Outline: as §1

[9] = molecular target: hT2R61 (Homo sapiens (Human), UniProt P59537); assay: hT2R panel inhibition, transient HEK293 G16g44, agonist Aristolochic Acid 25 nM; assay type: cell-based; conditions: HEK293, compound at 25 μM; receptor activated to EC80 with the corresponding agonist; read-out: screening result against bitter receptor 61
Outline: as §1

[10] = molecular target: hT2R71 (Homo sapiens (Human), UniProt P59536); assay: hT2R panel inhibition, transient HEK293 G16g44, agonist Picric Acid 10 μM; assay type: cell-based; conditions: HEK293, compound at 25 μM; receptor activated to EC80 with the corresponding agonist; read-out: screening result against bitter receptor 71
Outline: as §1

[11] = molecular target: hT2R64 (Homo sapiens (Human), UniProt P59538); assay: hT2R panel inhibition, transient HEK293 G16g44, agonist Aristolochic Acid 1 μM; assay type: cell-based; conditions: HEK293, compound at 25 μM; receptor activated to EC80 with the corresponding agonist; read-out: screening result against bitter receptor 64
Outline: as §1

[12] = system: hT2R63; assay: hT2R panel inhibition, transient HEK293 G16g44, agonist Caffeine 1 mM or Andrographolide 100 μM; assay type: cell-based, human; conditions: compound at 25 μM; receptor activated to EC80 with the corresponding agonist
Outline: as §1

[13] = molecular target: hT2R16 (Homo sapiens (Human), UniProt Q9NYV7); assay: hT2R panel inhibition, transient HEK293 G16g44, agonist Salicin 1 mM; assay type: cell-based; conditions: HEK293, compound at 25 μM; receptor activated to EC80 with the corresponding agonist; read-out: screening result against bitter receptor 16
Outline: as §1

[14] = molecular target: T1, hT2R14 (Homo sapiens (Human), UniProt Q9NYV8); assay: hT2R panel inhibition, transient HEK293 G16g44, agonist Aristolochic Acid 2 μM; assay type: cell-based; conditions: HEK293, compound at 25 μM; receptor activated to EC80 with the corresponding agonist; read-out: screening result against bitter receptor 14
Outline: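 Each hT2R was transiently transfected into HEK293 cells stably expressing G16g44 and assayed functionally for inhibition of agonist response. Agonists were applied at EC80: andrographolide at 0.5 mM for hT2R8 and aristolochic acid at 2 μM for hT2R14.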

[15] = molecular target: T1, hT2R14; assay: hT2R14 antagonist high-throughput FLIPR assay, stable cell line with G16g44, agonist aristolochic acid; assay type: cell-based; conditions: Table C; read-out: hT2R14 IC50
Outline: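 HEK293 cells stably expressing hT2R14 with chimeric G16g44 were stimulated with aristolochic acid (3 μM), giving 70-80% of maximal receptor activity. Test compounds were added together with the agonist, and antagonism was read as fluorescent calcium signal on FLIPR.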

[16] = system: hT2R54; assay: hT2R panel inhibition, transient HEK293 G16g44, agonist Ranitidine 5 mM; assay type: cell-based, human; conditions: compound at 25 μM; receptor activated to EC80 with the corresponding agonist
Outline: as §1

[17] = molecular target: hT2R75 (Homo sapiens (Human), UniProt P59540); assay: hT2R panel inhibition, transient HEK293 G16g44, agonist Strychnine 1 μM; assay type: cell-based; conditions: HEK293, read-out: screening result against bitter receptor 75, compound at 25 μM; receptor activated to EC80 with the corresponding agonist
[18] = molecular target: hT2R4 (Homo sapiens (Human), UniProt Q9NYW5); assay: hT2R panel inhibition, transient HEK293 G16g44, agonist Chloroquine pH6.5 5 mM; assay type: cell-based; conditions: HEK293, compound at 25 μM; receptor activated to EC80 with the corresponding agonist; class symbols; read-out: screening result against bitter receptor 4
Outline: as §1

[19] = molecular target: hT2R51 (Homo sapiens (Human), UniProt P59533); assay: hT2R panel inhibition, transient HEK293 G16g44, agonist Prop 2.5 μM; assay type: cell-based; conditions: HEK293, compound at 25 μM; receptor activated to EC80 with the corresponding agonist; read-out: screening result against bitter receptor 51
Outline: as §1

[20] = molecular target: hT2R7 (Homo sapiens (Human), UniProt Q9NYW3); assay: hT2R panel inhibition, transient HEK293 G16g44, agonist Chloroquine pH6.5 10 mM; assay type: cell-based; conditions: HEK293, compound at 25 μM; receptor activated to EC80 with the corresponding agonist; read-out: screening result against bitter receptor 7
Outline: as §1

hT2R16, sequence (Q9NYV7 whole entry): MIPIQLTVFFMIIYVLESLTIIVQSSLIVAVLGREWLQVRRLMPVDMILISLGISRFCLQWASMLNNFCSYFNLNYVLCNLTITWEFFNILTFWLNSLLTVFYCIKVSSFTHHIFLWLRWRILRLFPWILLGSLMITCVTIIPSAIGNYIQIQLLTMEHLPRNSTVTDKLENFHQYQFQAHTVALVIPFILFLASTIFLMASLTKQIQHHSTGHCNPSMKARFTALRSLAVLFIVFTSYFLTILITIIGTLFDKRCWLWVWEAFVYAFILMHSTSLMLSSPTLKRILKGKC
hT2R71, sequence (P59536 whole entry): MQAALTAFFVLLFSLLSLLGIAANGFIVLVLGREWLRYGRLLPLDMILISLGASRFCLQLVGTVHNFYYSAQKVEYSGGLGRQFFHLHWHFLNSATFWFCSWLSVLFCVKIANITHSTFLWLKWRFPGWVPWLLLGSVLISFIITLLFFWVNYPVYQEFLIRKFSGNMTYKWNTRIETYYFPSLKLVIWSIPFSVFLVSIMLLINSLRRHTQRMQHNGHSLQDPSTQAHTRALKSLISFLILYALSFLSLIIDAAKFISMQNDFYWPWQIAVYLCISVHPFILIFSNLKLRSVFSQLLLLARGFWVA
hT2R10, sequence (Q9NYW0 whole entry): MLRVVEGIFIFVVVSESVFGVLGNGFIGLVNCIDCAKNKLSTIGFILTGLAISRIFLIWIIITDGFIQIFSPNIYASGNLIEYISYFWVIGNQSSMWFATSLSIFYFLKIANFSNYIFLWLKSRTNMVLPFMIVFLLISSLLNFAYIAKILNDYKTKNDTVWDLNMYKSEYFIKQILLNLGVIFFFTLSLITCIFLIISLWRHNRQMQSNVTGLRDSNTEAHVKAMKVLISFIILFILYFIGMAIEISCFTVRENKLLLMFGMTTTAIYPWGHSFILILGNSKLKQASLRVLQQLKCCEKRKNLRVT
hT2R61, sequence (P59537 whole entry): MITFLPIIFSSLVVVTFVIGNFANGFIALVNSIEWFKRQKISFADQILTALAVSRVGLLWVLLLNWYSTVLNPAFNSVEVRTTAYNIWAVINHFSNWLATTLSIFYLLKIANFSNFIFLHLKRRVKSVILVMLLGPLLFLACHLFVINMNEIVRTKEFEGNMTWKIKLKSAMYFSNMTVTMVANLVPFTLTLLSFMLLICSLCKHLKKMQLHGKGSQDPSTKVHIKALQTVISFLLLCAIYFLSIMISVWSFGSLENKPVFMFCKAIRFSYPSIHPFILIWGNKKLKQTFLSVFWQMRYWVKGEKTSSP
hT2R3, sequence (Q9NYW6 whole entry): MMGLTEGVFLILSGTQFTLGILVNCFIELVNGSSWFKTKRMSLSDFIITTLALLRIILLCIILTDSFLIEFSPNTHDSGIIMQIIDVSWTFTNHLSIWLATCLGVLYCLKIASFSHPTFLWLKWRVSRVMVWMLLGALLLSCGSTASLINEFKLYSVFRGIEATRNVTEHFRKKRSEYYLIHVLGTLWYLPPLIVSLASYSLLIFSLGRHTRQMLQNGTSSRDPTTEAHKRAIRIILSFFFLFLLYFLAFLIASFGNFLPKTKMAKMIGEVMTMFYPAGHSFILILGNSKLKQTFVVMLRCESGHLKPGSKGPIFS
hT2R5, sequence (Q9NYW4 whole entry): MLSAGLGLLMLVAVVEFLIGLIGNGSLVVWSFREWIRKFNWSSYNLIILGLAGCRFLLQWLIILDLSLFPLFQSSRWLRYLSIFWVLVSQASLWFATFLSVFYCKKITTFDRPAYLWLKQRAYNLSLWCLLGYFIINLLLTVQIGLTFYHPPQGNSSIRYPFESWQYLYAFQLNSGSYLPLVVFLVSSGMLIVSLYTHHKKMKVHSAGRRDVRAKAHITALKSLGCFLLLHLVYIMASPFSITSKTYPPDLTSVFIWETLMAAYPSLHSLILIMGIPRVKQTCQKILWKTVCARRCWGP
hT2R64, sequence (P59538 whole entry): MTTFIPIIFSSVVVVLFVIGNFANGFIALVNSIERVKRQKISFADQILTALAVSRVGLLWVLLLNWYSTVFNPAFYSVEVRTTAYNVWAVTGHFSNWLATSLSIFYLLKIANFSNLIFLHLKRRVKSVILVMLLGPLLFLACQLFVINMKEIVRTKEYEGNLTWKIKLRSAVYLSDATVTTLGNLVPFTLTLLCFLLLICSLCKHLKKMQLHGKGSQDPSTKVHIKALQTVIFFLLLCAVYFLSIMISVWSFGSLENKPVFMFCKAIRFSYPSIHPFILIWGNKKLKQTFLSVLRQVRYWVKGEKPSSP
T1 sequence (Q9NYV8 whole entry): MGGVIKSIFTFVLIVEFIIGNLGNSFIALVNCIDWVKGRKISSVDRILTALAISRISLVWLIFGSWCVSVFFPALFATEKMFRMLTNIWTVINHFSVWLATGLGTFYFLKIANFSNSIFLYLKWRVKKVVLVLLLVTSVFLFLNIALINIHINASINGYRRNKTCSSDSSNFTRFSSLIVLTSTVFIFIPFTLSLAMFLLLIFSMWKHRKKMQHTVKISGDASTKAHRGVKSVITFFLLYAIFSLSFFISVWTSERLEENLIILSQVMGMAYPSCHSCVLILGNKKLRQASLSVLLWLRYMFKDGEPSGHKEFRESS
hT2R4, sequence (Q9NYW5 whole entry): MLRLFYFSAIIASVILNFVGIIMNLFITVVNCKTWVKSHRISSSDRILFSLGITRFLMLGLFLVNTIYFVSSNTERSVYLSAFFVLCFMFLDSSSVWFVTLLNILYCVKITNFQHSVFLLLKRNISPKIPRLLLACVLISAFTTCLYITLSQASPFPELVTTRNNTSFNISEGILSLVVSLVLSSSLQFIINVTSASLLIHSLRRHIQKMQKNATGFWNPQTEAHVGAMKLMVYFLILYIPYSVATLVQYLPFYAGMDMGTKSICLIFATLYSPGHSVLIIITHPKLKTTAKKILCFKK
hT2R51, sequence (P59533 whole entry): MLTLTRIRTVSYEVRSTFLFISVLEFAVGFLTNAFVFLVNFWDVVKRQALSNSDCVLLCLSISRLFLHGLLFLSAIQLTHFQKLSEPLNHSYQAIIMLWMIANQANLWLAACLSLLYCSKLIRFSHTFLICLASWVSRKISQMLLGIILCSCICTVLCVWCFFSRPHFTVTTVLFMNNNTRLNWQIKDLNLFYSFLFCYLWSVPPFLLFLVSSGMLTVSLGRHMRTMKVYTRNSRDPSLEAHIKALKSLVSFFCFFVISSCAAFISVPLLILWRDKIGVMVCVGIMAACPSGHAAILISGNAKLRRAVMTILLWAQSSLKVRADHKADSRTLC
hT2R75, sequence (P59540 whole entry): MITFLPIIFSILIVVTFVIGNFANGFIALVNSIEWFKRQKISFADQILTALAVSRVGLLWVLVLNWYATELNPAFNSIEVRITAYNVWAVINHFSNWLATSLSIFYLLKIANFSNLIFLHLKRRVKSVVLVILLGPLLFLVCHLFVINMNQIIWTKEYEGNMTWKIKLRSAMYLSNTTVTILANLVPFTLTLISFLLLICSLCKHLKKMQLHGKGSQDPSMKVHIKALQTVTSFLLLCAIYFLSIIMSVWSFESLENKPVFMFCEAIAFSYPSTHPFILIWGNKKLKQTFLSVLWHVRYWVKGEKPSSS
hT2R7, sequence (Q9NYW3 whole entry): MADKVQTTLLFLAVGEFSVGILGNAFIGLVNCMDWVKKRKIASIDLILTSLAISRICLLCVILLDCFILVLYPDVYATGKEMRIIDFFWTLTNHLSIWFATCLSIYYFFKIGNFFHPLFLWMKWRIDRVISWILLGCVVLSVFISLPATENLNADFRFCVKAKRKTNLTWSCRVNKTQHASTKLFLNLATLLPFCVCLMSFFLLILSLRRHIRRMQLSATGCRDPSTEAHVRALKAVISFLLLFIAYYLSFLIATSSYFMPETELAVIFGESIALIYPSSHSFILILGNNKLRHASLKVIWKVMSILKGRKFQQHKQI
hT2R9, sequence (Q9NYW1 whole entry): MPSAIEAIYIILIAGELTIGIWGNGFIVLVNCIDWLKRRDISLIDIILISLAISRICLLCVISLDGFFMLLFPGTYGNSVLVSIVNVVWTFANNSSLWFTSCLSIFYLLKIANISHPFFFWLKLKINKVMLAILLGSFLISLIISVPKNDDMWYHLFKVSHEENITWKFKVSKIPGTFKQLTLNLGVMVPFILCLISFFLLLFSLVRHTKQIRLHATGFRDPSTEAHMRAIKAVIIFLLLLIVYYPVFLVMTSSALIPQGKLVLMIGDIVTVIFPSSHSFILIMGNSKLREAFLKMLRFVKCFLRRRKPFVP

COc1ccc(CN(Cc2cc(OC)cc(OC)c2)S(=O)(=O)c2ccc(C(=O)O)cc2)cc1 [Example 5-67, 4-(N-(3,5-dimethoxybenzyl)-N-(4-methoxybenzyl)sulfamoyl)benzoic acid]
screening result against bitter receptor 55 [1]: ++++ (80% or greater inhibition = ++++)
inhibition at 25 µM [2]: 40 to 60%
screening result against bitter receptor 44 [3]: ++ (40% to 60% inhibition = ++)
screening result against bitter receptor 67 [4]: + (20% to 40% inhibition = +)
inhibition at 25 µM [5]: 20 to 40%
inhibition at 25 µM [6]: 20 to 40%
inhibition at 25 µM [7]: 40 to 60%
screening result against bitter receptor 65 [8]: + (20% to 40% inhibition = +)
inhibition at 25 µM [9]: 40 to 60%
inhibition at 25 µM [10]: 40 to 60%
inhibition at 25 µM [11]: 60 to 80%
screening result against bitter receptor 63 [12]: ++++ (80% or greater inhibition = ++++)
inhibition at 25 µM [13]: 20 to 40%
inhibition at 25 µM [14]: 60 to 80%
IC50 [15]: 12100 nM
screening result against bitter receptor 54 [16]: ++ (40% to 60% inhibition = ++)

COc1ccc(CN(Cc2ccccc2F)S(=O)(=O)c2ccc(C(=O)O)cc2)cc1 [Example 5-31, 4-(N-(2-fluorobenzyl)-N-(4-methoxybenzyl)sulfamoyl)benzoic acid]
screening result against bitter receptor 44 [3]: + (20% to 40% inhibition = +)
inhibition at 25 µM [5]: 20 to 40%
inhibition at 25 µM [7]: 20 to 40%

COc1ccc(CN(Cc2ccc(C(=O)O)cc2)S(=O)(=O)c2ccccc2)cc1 [Example 5-102, 4-((N-(4-methoxybenzyl)phenylsulfonamido)methyl) benzoic acid]
screening result against bitter receptor 55 [1]: ++++ (80% or greater inhibition = ++++)
inhibition at 25 µM [2]: 20 to 40%
screening result against bitter receptor 44 [3]: +++ (60% to 80% inhibition = +++)
inhibition at 25 µM [17]: 20 to 40%
screening result against bitter receptor 67 [4]: + (20% to 40% inhibition = +)
inhibition at 25 µM [6]: 20 to 40%
inhibition at 25 µM [7]: 40 to 60%
screening result against bitter receptor 65 [8]: ++ (40% to 60% inhibition = ++)
inhibition at 25 µM [18]: 40 to 60%
inhibition at 25 µM [9]: > 80%
inhibition at 25 µM [10]: 60 to 80%
inhibition at 25 µM [11]: 60 to 80%
screening result against bitter receptor 63 [12]: + (20% to 40% inhibition = +)
inhibition at 25 µM [13]: 20 to 40%
inhibition at 25 µM [14]: > 80%
inhibition at 25 µM [19]: 20 to 40%
IC50 [15]: 2220 nM
inhibition at 25 µM [20]: 40 to 60%
screening result against bitter receptor 54 [16]: + (20% to 40% inhibition = +)

O=C(O)c1ccc(CN(Cc2ccccc2F)S(=O)(=O)c2ccccc2)cc1 [Example 5-103, 4-((N-(2-fluorobenzyl)phenylsulfonamido)methyl)-benzoic acid]
screening result against bitter receptor 55 [1]: ++++ (80% or greater inhibition = ++++)
inhibition at 25 µM [2]: 20 to 40%
screening result against bitter receptor 44 [3]: +++ (60% to 80% inhibition = +++)
inhibition at 25 µM [17]: 20 to 40%
screening result against bitter receptor 67 [4]: + (20% to 40% inhibition = +)
inhibition at 25 µM [6]: 20 to 40%
inhibition at 25 µM [7]: 40 to 60%
screening result against bitter receptor 65 [8]: ++ (40% to 60% inhibition = ++)
inhibition at 25 µM [18]: 40 to 60%
inhibition at 25 µM [9]: > 80%
inhibition at 25 µM [10]: > 80%
inhibition at 25 µM [11]: > 80%
screening result against bitter receptor 63 [12]: ++ (40% to 60% inhibition = ++)
inhibition at 25 µM [13]: 20 to 40%
inhibition at 25 µM [14]: > 80%
inhibition at 25 µM [19]: 20 to 40%
IC50 [15]: 429 nM
inhibition at 25 µM [20]: 20 to 40%
screening result against bitter receptor 54 [16]: ++ (40% to 60% inhibition = ++)
